Reference: patent US8372844B2, “Piperazinyl-propyl-pyrazole derivatives as dopamine D4 receptor antagonists, and pharmaceutical compositions containing the same” (Korea Research Institute of Chemical Technology, priority 2007, dated 2013)

Assays:
[1] = target: T1, human recombinant dopamine D4.2 receptor (Homo sapiens, UniProt P21917, DEL265-296); assay: Measurement of affinity for dopamine D4 receptor ([3H]YM-09151-2 binding); conditions: [3H]YM-09151-2 0.1 nM, receptor expressed in CHO-K1 cells, 120 min at 25° C.
T1 construct: purchased PerkinElmer Life and Analytical Sciences, USA; host or cells: CHO-K1 cells
T1 sequence (P21917 with tags, fused parts or gaps DEL265-296): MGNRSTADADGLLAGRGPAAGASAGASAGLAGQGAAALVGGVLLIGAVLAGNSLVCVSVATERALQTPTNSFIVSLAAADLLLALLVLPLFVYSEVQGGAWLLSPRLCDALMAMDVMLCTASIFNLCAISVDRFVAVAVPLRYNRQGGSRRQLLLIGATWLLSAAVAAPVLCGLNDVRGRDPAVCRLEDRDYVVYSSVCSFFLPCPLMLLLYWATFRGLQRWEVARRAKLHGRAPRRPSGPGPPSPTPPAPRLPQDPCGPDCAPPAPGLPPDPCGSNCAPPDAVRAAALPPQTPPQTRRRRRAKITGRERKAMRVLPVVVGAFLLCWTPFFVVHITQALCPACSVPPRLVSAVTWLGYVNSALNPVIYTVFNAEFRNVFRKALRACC
Description: The affinities of the compounds for dopamine D4 receptor were measured by using human recombinant dopamine D4.2 receptor (PerkinElmer Life and Analytical Sciences, USA) expressed in CHO-K1 cells, and [^3H]YM-09151-2 (PerkinElmer) was used as a radioactive ligand.
50 mM Tris-HCl (pH 7.4) containing 120 mM NaCl, 5 mM KCl, 5 mM MgCl2 and 1 mM EDTA was used as a buffer solution for the analysis of receptor binding. [^3H] YM-09151-2 binding reactions were performed in a 96-well plate format.
For drug screening, a reaction mixture with a final volume of 0.25 mL was prepared by mixing a compound of the present invention, D4 receptor membrane (43 μg/well), [^3H] YM-09151-2 (0.1 nM), 50 mM Tris-HCl (pH 7.4) and the like. The reaction mixture was incubated for 120 min at 25° C., and then promptly passed through Wallac GF/C glass fiber filter (Wallac, Finland), which was already wetted in 0.5% PEI, by using Inotech harvester (Inotech) to terminate the reaction, and then washed with cold 50 mM Tris-HCl buffer solution. The filter was then covered with MeltiLex, sealed in a sample bag, and then dried in an oven. The radioactivity retained in the filter was finally counted using MicroBeta Plus, Wallac.
The affinity (IC50) of a compound for the receptor was calculated via nonlinear regression analysis of sigmoidal dose-response equation with the data obtained from three independent experiments (GraphPad Prism Program, San Diego, USA), which are carried out using 7-8 different concentrations of the compound in duplicate. Nonspecific binding was measured in the presence of 10 μM clozapine.

[2] = target: T2, Human recombinant dopamine D2 receptor (Homo sapiens, UniProt P14416); assay: Measurement of affinity for dopamine D2 receptor ([3H]spiperone binding); conditions: for IC50: [3H]spiperone 0.5 nM, CHO cell line, 60 min at 27° C.
T2 construct: purchased PerkinElmer; host or cells: CHO cell line
T2 sequence (P14416 whole entry): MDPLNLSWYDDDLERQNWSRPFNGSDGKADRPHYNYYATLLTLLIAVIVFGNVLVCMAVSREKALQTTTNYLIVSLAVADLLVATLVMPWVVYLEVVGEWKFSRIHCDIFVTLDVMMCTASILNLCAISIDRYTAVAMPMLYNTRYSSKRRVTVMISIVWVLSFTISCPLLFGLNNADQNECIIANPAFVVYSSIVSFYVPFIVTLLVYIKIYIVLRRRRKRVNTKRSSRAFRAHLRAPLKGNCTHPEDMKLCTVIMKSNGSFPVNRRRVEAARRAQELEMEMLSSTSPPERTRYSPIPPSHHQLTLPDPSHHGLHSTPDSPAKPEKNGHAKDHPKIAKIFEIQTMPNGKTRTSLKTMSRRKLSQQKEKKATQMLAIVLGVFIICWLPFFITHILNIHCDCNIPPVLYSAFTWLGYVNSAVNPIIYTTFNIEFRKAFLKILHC
Description: Human recombinant dopamine D2 and D3 receptors, which were expressed in CHO cell lines, respectively, were purchased from PerkinElmer and Euroscreen, respectively.
50 mM Tris-HCl (pH 7.4) containing […] and 1 mM EDTA was used as a buffer solution for the measurement of affinity for dopamine D2 receptor. 50 mM Tris-HCl (pH 7.4) containing 5 mM MgCl2, 5 mM EDTA, 5 mM KCl, 1.5 mM CaCl2 and 120 mM NaCl was used as a buffer solution for the measurement of affinity for dopamine D3 receptor. For measurement of non-specific binding, 10 μM haloperidol (haloperidol) was used.

Row | SMILES | IC50 [1] | affinity for D2 receptors (in words) [2] | IC50 [2]
1 | CCCc1cc(CCCN2CCN(c3ccccc3)CC2)n(-c2ccccc2)n1 [Compound 155, 1-phenyl-4-(3-(1-phenyl-3-propyl-1H-pyrazol-5-yl)propyl)piperazine] | 5.9 nM | extremely poor affinity | 5260 nM
2 | CCCc1cc(CCCN2CCN(c3ccccc3F)CC2)n(-c2ccccc2)n1 [Compound 156, 1-(2-fluorophenyl)-4-(3-(1-phenyl-3-propyl-1H-pyrazol-5-yl)propyl)piperazine] | 3.5 nM | extremely poor affinity | 696 nM
3 | CCCc1cc(CCCN2CCN(c3ccc(C)c(C)c3)CC2)n(-c2ccccc2)n1 [Compound 159, 1-(3,4-dimethylphenyl)-4-(3-(1-phenyl-3-propyl-1H-pyrazol-5-yl)propyl)piperazine] | 1.3 nM | extremely poor affinity | 2050 nM
4 | CCCc1cc(CCCN2CCN(c3cccc(C)c3C)CC2)n(-c2ccccc2)n1 [Compound 160, 1-(2,3-dimethylphenyl)-4-(3-(1-phenyl-3-propyl-1H-pyrazol-5-yl)propyl)piperazine] | 2.9 nM | extremely poor affinity | 3790 nM
5 | CC(C)c1cc(CCCN2CCN(c3ccccc3F)CC2)n(-c2ccccc2)n1 [Compound 177, 1-(2-fluorophenyl)-4-(3-(1-phenyl-3-isopropyl-1H-pyrazol-5-yl)propyl)piperazine] | 8 nM | extremely poor affinity | 227 nM
